Experimental data: US20120115903A1, “Substituted Heteroaromatic Carboxamide and Urea Compounds as Vanilloid Receptor Ligands” (Gruenenthal GmbH, priority 2010, published 2012)

How the values were obtained:
Type in all cases: cell-based
[1] = molecular target: T1, vanilloid receptor 1 (VR1/TRPV1 receptor) (Homo sapiens, UniProt Q8NER1); assay: FLIPR Ca2+ influx assay with CHO K1 cells transfected with the human VR1 gene, capsaicin stimulus; conditions: read-out: inhibition (as a percentage), human being, Cap; for inhibition at 5 µM: @ 5 μM compound
T1 construct: expressed in transfected cells; host or cells: CHO K1 cells (ECACC), stably transfected

[2] = molecular target: T1, vanilloid receptor 1 (VR1/TRPV1 receptor); assay: as above; conditions: Cap = capsaicin (100 nM), Ki from IC50 by Cheng-Prusoff, read-out: Ki (human being) [nM] Cap
Experimental: Furthermore, preference may be given to compounds according to the invention of general formula (I) that cause a 50 percent displacement of capsaicin, which is present at a concentration of 100 nM, in a FLIPR assay with CHO K1 cells which were transfected with the human VR1 gene at a concentration of less than 2,000 nM, preferably less than 1,000 nM, particularly preferably less than 300 nM, most particularly preferably less than 100 nM, even more preferably less than 75 nM, additionally preferably less than 50 nM, most preferably less than 10 nM. In the process, the Ca^2+ influx is quantified in the FLIPR assay with the aid of a Ca^2+-sensitive dye (type Fluo-4, Molecular Probes Europe BV, Leiden, the Netherlands) in a fluorescent imaging plate reader (FLIPR, Molecular Devices, Sunnyvale, USA), as described hereinafter. The agonistic or antagonistic effect of the substances to be tested on the vanilloid receptor 1 (VR1) can also be determined using the following assay. In this assay, the influx of Ca^2+ through the channel is quantified with the aid of a Ca^2+-sensitive dye (type Fluo-4, Molecular Probes Europe BV, Leiden, the Netherlands) in a fluorescent imaging plate reader (FLIPR, Molecular Devices, Sunnyvale, USA). Chinese hamster ovary cells (CHO K1 cells, European Collection of Cell Cultures (ECACC) United Kingdom) are stably transfected with the VR1 gene. For functional testing, these cells are plated out on poly-D-lysine-coated black 96-well plates having a clear base (BD Biosciences, Heidelberg, Germany) at a density of 25,000 cells/well. The cells are incubated overnight at 37° C. and 5% CO2 in a culture medium (Ham's F12 nutrient mixture, 10% by volume of FCS (foetal calf serum), 18 μg/ml of L-proline). The next day the cells are incubated with Fluo-4 (Fluo-4 2 μM, 0.01% by volume of Pluronic F127, Molecular Probes in HBSS (Hank's buffered saline solution), Gibco Invitrogen GmbH, Karlsruhe, Germany) for 30 minutes at 37° C. Subsequently, the plates are washed three times with HBSS buffer and after further incubation for 15 minutes at RT used for Ca^2+ measurement in a FLIPR assay. The Ca^2+-dependent fluorescence is measured before and after the addition of the substances to be tested (λex wavelength=488 nm, λem=540 nm). Quantification is carried out by measuring the highest fluorescence intensity (FC, fluorescence counts) over time. The FLIPR protocol consists of 2 substance additions. First the compounds to be tested (10 μM) are pipetted onto the cells and the Ca^2+ influx is compared with the control (capsaicin 10 μM) (% activation based on the Ca^2+ signal after the addition of 10 μM of capsaicin). After 5 minutes' incubation, 100 nM of capsaicin are applied and the Ca^2+ influx is also determined. Desensitising agonists and antagonists led to suppression of the Ca^2+ influx. The % inhibition is calculated compared to the maximum achievable inhibition with 10 μM of capsaicin. Starting from the percentage displacement caused by different concentrations of the compounds to be tested of general formula I, IC50 inhibitory concentrations which cause a 50-percent displacement of capsaicin were calculated. K, values for the test substances were obtained by conversion by means of the Cheng-Prusoff equation (Cheng, Prusoff; Biochem. Pharmacol. 22, 3099-3108, 1973). The affinity of the compounds according to the invention for the vanilloid receptor 1 (VR1/TRPV1 receptor) was determined as described hereinbefore (pharmacological methods I and II respectively). The compounds according to the invention of the above-indicated formula (I) display outstanding affinity to the VR1/TRPV1 receptor (Table 1.).

[3] = molecular target: T2, vanilloid receptor 1 (VR1/TRPV1 receptor) (Mus musculus, UniProt Q704Y3); assay: FLIPR Ca2+ influx assay on vanilloid receptor 1, capsaicin stimulus (mouse); conditions: Cap = capsaicin, Ki from IC50 by Cheng-Prusoff
T2 construct: expressed in transfected cells; host or cells: CHO K1 cells (inferred: method II; method I is described for rat DRG neurons only)
Description: The agonistic or antagonistic effect of the substances to be tested on the vanilloid receptor 1 (VR1) can also be determined using the following assay. In this assay, the influx of Ca^2+ through the channel is quantified with the aid of a Ca^2+-sensitive dye (type Fluo-4, Molecular Probes Europe BV, Leiden, the Netherlands) in a fluorescent imaging plate reader (FLIPR, Molecular Devices, Sunnyvale, USA).
Chinese hamster ovary cells (CHO K1 cells, European Collection of Cell Cultures (ECACC) United Kingdom) are stably transfected with the VR1 gene. […] The Ca^2+-dependent fluorescence is measured before and after the addition of the substances to be tested (λex wavelength=488 nm, λem=540 nm). Quantification is carried out by measuring the highest fluorescence intensity (FC, fluorescence counts) over time.
The FLIPR protocol consists of 2 substance additions. […] After 5 minutes' incubation, 100 nM of capsaicin are applied and the Ca^2+ influx is also determined. […]
Starting from the percentage displacement caused by different concentrations of the compounds to be tested of general formula I, IC50 inhibitory concentrations which cause a 50-percent displacement of capsaicin were calculated. […]
The affinity of the compounds according to the invention for the vanilloid receptor 1 (VR1/TRPV1 receptor) was determined as described hereinbefore (pharmacological methods I and II respectively). […]

T1 sequence (Q8NER1 whole entry): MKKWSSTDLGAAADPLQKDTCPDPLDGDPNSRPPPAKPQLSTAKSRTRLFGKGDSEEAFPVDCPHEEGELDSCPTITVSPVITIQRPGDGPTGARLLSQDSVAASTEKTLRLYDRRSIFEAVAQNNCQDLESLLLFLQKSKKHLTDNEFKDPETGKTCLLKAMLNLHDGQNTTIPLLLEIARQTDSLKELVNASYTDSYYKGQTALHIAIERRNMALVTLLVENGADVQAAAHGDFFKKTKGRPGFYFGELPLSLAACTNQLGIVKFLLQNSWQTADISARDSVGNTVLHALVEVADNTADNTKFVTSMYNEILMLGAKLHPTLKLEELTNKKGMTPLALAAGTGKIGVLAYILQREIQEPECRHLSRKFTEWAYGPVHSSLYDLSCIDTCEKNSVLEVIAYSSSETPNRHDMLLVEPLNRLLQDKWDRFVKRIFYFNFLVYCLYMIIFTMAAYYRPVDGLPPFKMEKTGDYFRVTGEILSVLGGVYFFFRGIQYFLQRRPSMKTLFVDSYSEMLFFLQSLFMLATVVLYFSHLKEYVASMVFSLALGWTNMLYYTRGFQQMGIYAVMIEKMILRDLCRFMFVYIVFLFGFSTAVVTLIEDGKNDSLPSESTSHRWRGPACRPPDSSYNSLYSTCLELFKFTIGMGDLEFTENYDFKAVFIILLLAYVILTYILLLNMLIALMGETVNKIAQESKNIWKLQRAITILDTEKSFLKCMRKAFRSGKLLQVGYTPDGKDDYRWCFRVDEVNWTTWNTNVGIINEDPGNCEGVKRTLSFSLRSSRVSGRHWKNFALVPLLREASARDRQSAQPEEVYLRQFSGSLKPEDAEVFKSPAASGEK
T2 sequence (Q704Y3 whole entry): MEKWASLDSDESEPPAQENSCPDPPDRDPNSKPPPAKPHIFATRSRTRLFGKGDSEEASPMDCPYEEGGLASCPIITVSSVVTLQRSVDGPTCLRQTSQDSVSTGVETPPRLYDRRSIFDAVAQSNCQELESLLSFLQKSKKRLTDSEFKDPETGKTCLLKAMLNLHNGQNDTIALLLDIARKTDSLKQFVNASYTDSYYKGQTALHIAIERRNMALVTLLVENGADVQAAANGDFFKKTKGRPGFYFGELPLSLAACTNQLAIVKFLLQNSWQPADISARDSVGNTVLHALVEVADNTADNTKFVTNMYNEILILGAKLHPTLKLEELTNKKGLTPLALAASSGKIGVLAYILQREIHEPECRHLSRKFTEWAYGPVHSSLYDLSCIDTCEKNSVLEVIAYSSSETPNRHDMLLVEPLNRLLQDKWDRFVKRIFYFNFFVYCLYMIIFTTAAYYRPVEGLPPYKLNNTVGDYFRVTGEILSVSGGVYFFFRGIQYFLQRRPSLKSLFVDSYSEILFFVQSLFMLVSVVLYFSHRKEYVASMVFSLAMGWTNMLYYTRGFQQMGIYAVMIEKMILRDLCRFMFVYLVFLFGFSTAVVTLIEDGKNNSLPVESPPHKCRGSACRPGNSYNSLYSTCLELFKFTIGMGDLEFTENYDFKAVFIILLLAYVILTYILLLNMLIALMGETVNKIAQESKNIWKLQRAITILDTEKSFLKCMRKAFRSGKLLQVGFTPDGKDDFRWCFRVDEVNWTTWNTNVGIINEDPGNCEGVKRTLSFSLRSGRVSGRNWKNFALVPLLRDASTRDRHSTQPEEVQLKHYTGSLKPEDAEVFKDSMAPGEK

inhibition at 1 µM ([1]; @ 1 μM compound) | inhibition at 5 µM [1] | Ki [2] | Ki [3] | SMILES
4% | 30% | – | – | Cn1nc(NC(=O)NCc2cc(C(F)(F)F)nn2-c2cccc(Cl)c2)c2cccnc21 [Example 17, 1-((1-(3-chlorophenyl)-3-(trifluoromethyl)-1H-pyrazol-5-yl)methyl)-3-(1-methyl-1H-pyrazolo[3,4-b]pyridin-3-yl)urea]
– | 24% | – | – | O=C(NCc1cc(C(F)(F)F)nn1-c1cccc(Cl)c1)Nc1n[nH]c2ccccc12 [Example 16, 1-((1-(3-chlorophenyl)-3-(trifluoromethyl)-1H-pyrazol-5-yl)methyl)-3-(1H-indazol-3-yl)urea]
– | 14% | – | – | CC(C(=O)NCc1cc(C(F)(F)F)nn1CC1CC1)c1cn(C)c2ccccc12 (centres unmarked) [Example 15, N-((1-(cyclopropylmethyl)-3-(trifluoromethyl)-1H-pyrazol-5-yl)methyl)-2-(1-methyl-1H-indol-3-yl)propanamide]
– | – | 0.4 nM | 4.8 nM | CC(C(=O)NCc1cc(C(F)(F)F)nn1-c1cccc(Cl)c1)c1cn(C)c2ccc(O)cc12 (centres unmarked) [Example 10, N-((1-(3-chlorophenyl)-3-(trifluoromethyl)-1H-pyrazol-5-yl)methyl)-2-(5-hydroxy-1-methyl-1H-indol-3-yl)propanamide]
– | – | 0.6 nM | 38.5 nM | Cc1cccc(-n2nc(C(F)(F)F)cc2CNC(=O)C(C)c2cn(C)c3ccc(O)cc23)c1 (centres unmarked) [Example 5, 2-(5-hydroxy-1-methyl-1H-indol-3-yl)-N-((1-m-tolyl-3-(trifluoromethyl)-1H-pyrazol-5-yl)methyl)propanamide]
